According to ChEMBL document CHEMBL1201862, “PubChem BioAssay data set” (2004):
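Briefly, cells in 96-well plates were exposed to five compound concentrations for 48 h, and endpoints were estimated by linear interpolation. At the GI50, growth is halved.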 Calls of active or inactive are those of the source. Cut-off read from the data, not from the text of the source: active = GI50 up to about 1.1 µM and inactive = higher.

Assays:
Experiment in all cases: NCI tumour cell line growth inhibition, 48 h
[1] = test system: HCT-15
[2] = test system: NCI-H522
[3] = test system: UACC-257
[4] = test system: U-251
[5] = test system: HCT-116
[6] = test system: NCI-H23
[7] = test system: SF-539
[8] = test system: SK-MEL-5
[9] = test system: NCI-H226
[10] = test system: UACC-62
[11] = test system: SK-MEL-2
[12] = test system: RPMI-8226
[13] = test system: KM12
[14] = test system: HOP-62
[15] = test system: TK-10
[16] = test system: 786-0
[17] = test system: MDA-MB-435
[18] = test system: PC-3
[19] = test system: T47D
[20] = test system: MDA-MB-231

Row | Compound | GI50 [1] [µM] | GI50 [2] | GI50 [3] | GI50 [4] | GI50 [5] | GI50 [6] | GI50 [7] | GI50 [8] | GI50 [9] | GI50 [10] | GI50 [11] | GI50 [12] | GI50 [13] | GI50 [14] | GI50 [15] | GI50 [16] | GI50 [17] | GI50 [18] | GI50 [19] | GI50 [20]
1 | C[C@H](O)CCC(=O)c1ccoc1 | > 100 | > 100 µM (inactive) | > 100 µM (inactive) | > 100 µM (inactive) | > 100 µM (inactive) | > 100 µM (inactive) | > 100 µM (inactive) | > 100 µM (inactive) | > 100 µM (inactive) | > 100 µM (inactive) | > 100 µM (inactive) | > 100 µM (inactive) | > 100 µM (inactive) | > 100 µM (inactive) | > 100 µM (inactive) | > 100 µM (inactive) | – | – | – | –
2 | O=C(Cn1c2c(c3ccccc31)CCCC2)N1CCOCC1 | > 100 | – | > 100 µM (inactive) | – | > 100 µM (inactive) | > 100 µM (inactive) | > 100 µM (inactive) | > 100 µM (inactive) | – | > 100 µM (inactive) | > 100 µM (inactive) | > 100 µM (inactive) | – | > 100 µM (inactive) | > 100 µM (inactive) | > 100 µM (inactive) | > 100 µM (inactive) | > 100 µM (inactive) | – | –
3 | Cn1c(=O)c2c3ccccc3n(C)c2n(C)c1=O | > 100 | > 100 µM (inactive) | > 100 µM (inactive) | > 100 µM (inactive) | > 100 µM (inactive) | > 100 µM (inactive) | > 100 µM (inactive) | > 100 µM (inactive) | > 100 µM (inactive) | > 100 µM (inactive) | > 100 µM (inactive) | > 100 µM (inactive) | > 100 µM (inactive) | > 100 µM (inactive) | > 100 µM (inactive) | > 100 µM (inactive) | > 100 µM (inactive) | – | > 100 µM (inactive) | > 100 µM (inactive)
4 | NC(=S)N1N=C2c3ccccc3CC[C@@H]2[C@@H]1c1ccccc1 | 3.33 | 1.5 µM (inactive) | 9.29 µM (inactive) | 3.98 µM (inactive) | 5.48 µM (inactive) | 4.68 µM (inactive) | 4.88 µM (inactive) | 3.82 µM (inactive) | 4.65 µM (inactive) | 4.74 µM (inactive) | 5.92 µM (inactive) | 5.61 µM (inactive) | 4.27 µM (inactive) | 5.43 µM (inactive) | 16.8 µM (inactive) | 6.89 µM (inactive) | – | – | – | –
5 | CC(C)OCN/C(N)=N\C#N | 17.5 | > 100 µM (inactive) | > 100 µM (inactive) | > 100 µM (inactive) | > 100 µM (inactive) | > 100 µM (inactive) | > 100 µM (inactive) | > 100 µM (inactive) | > 100 µM (inactive) | > 100 µM (inactive) | > 100 µM (inactive) | 24 µM (inactive) | > 100 µM (inactive) | > 100 µM (inactive) | > 100 µM (inactive) | 82.4 µM (inactive) | – | – | – | –
6 | Cc1c(-c2coc(-c3ccc([N+](=O)[O-])cc3)n2)c(=O)n(-c2ccccc2)n1C | > 100 | > 100 µM (inactive) | > 100 µM (inactive) | > 100 µM (inactive) | > 100 µM (inactive) | > 100 µM (inactive) | > 100 µM (inactive) | > 100 µM (inactive) | > 100 µM (inactive) | > 100 µM (inactive) | > 100 µM (inactive) | > 100 µM (inactive) | > 100 µM (inactive) | > 100 µM (inactive) | > 100 µM (inactive) | > 100 µM (inactive) | – | – | – | –
7 | CCCCOC(=O)C1CN2C(=NC1(C(F)(F)F)C(F)(F)F)Sc1ccccc12 (configuration not stated) | 45.6 | – | 36.1 µM (inactive) | 41.4 µM (inactive) | 33 µM (inactive) | 24.5 µM (inactive) | 44.1 µM (inactive) | 20 µM (inactive) | 27 µM (inactive) | 47.1 µM (inactive) | 34.8 µM (inactive) | 26.1 µM (inactive) | 27.2 µM (inactive) | 82.4 µM (inactive) | 30.6 µM (inactive) | 64.3 µM (inactive) | > 10 µM (inactive) | 16.2 µM (inactive) | 16.8 µM (inactive) | > 100 µM (inactive)
8 | COc1cc2c(c(OC)c1OC)C(=O)[C@H]1OC(=O)N[C@@H]21 | > 100 | – | > 100 µM (inactive) | > 100 µM (inactive) | > 100 µM (inactive) | > 100 µM (inactive) | > 100 µM (inactive) | – | > 100 µM (inactive) | > 100 µM (inactive) | > 100 µM (inactive) | > 100 µM (inactive) | > 100 µM (inactive) | > 100 µM (inactive) | > 100 µM (inactive) | > 100 µM (inactive) | > 100 µM (inactive) | > 100 µM (inactive) | > 100 µM (inactive) | > 100 µM (inactive)
9 | Cc1cc2ccccc2oc(=O)/c1=N\Nc1ccccc1 | > 100 | 65.5 µM (inactive) | > 100 µM (inactive) | 39.9 µM (inactive) | 41.9 µM (inactive) | 78.5 µM (inactive) | 37.8 µM (inactive) | 84.1 µM (inactive) | 47.9 µM (inactive) | 19.2 µM (inactive) | > 100 µM (inactive) | > 100 µM (inactive) | 58.2 µM (inactive) | 19.3 µM (inactive) | – | 25.6 µM (inactive) | > 100 µM (inactive) | 62.7 µM (inactive) | – | 25.6 µM (inactive)
10 | COC(=O)/C=C/c1c(CC=C(C)C)ncn1C | 7.85 | 25.3 µM (inactive) | 61.7 µM (inactive) | 19.1 µM (inactive) | 24.3 µM (inactive) | 37.7 µM (inactive) | 17.8 µM (inactive) | 22.1 µM (inactive) | > 38.5 µM (inactive) | 16.6 µM (inactive) | 19.6 µM (inactive) | 20.6 µM (inactive) | 11 µM (inactive) | 42 µM (inactive) | 55.7 µM (inactive) | 38.5 µM (inactive) | – | – | – | –
11 | CC(C)=C/C(CC(O)(C(F)(F)F)C(F)(F)F)=N\O | > 100 | – | > 100 µM (inactive) | > 100 µM (inactive) | > 100 µM (inactive) | > 100 µM (inactive) | > 100 µM (inactive) | > 100 µM (inactive) | > 100 µM (inactive) | > 100 µM (inactive) | – | > 100 µM (inactive) | > 100 µM (inactive) | > 100 µM (inactive) | > 100 µM (inactive) | > 100 µM (inactive) | > 100 µM (inactive) | – | > 100 µM (inactive) | > 100 µM (inactive)
12 | C=C(C)CCC1C=[N+]([O-])OC(C)(C)C1(C)C (configuration not stated) | 84.3 | > 100 µM (inactive) | > 100 µM (inactive) | > 100 µM (inactive) | > 100 µM (inactive) | – | > 100 µM (inactive) | > 100 µM (inactive) | > 100 µM (inactive) | 79.1 µM (inactive) | – | > 100 µM (inactive) | > 100 µM (inactive) | > 100 µM (inactive) | > 100 µM (inactive) | > 100 µM (inactive) | > 100 µM (inactive) | – | > 100 µM (inactive) | > 100 µM (inactive)
13 | C=C1CN2CC(=C)CN(C1)CS(=O)(=O)N1CC(=C)CN(CC(=C)C1)S(=O)(=O)N1CC(=C)CN(CC(=C)C1)S(=O)(=O)C2 | > 100 | 32.4 µM (inactive) | 23.6 µM (inactive) | 32.7 µM (inactive) | 51.3 µM (inactive) | 78.7 µM (inactive) | 15.6 µM (inactive) | 19.4 µM (inactive) | 27.7 µM (inactive) | 93.3 µM (inactive) | 38.4 µM (inactive) | 39.4 µM (inactive) | 40.4 µM (inactive) | 20.6 µM (inactive) | 22.1 µM (inactive) | 18.7 µM (inactive) | 43.9 µM (inactive) | 17.7 µM (inactive) | – | 24.2 µM (inactive)
14 | C=C(CN(C)C)C(=O)c1ccccc1Cl | 17.3 | 6.53 µM (inactive) | 18.8 µM (inactive) | 52.1 µM (inactive) | 18.4 µM (inactive) | 22.9 µM (inactive) | 24.4 µM (inactive) | 24.2 µM (inactive) | > 67.3 µM (inactive) | 18.3 µM (inactive) | 18.1 µM (inactive) | 17.7 µM (inactive) | > 47.8 µM (inactive) | > 100 µM (inactive) | 21.7 µM (inactive) | 19.9 µM (inactive) | – | – | – | –
15 | O=C(Nc1ccccc1-c1nn(C(=S)Nc2ccccc2)c(=S)n(C(=S)Nc2ccccc2)c1=O)C(F)(F)F | 20.1 | 13.6 µM (inactive) | 14.2 µM (inactive) | 25.6 µM (inactive) | 16.6 µM (inactive) | 15.5 µM (inactive) | 36.1 µM (inactive) | 11.7 µM (inactive) | 17.2 µM (inactive) | 17.3 µM (inactive) | 22.2 µM (inactive) | 11.1 µM (inactive) | 17.3 µM (inactive) | 29.3 µM (inactive) | 35.3 µM (inactive) | 32.1 µM (inactive) | – | – | – | –
16 | O=c1[nH]nc(Cc2ccccc2)n1/N=C/c1ccccc1O | > 100 | > 100 µM (inactive) | > 100 µM (inactive) | 45 µM (inactive) | > 100 µM (inactive) | > 100 µM (inactive) | > 100 µM (inactive) | > 100 µM (inactive) | > 100 µM (inactive) | > 100 µM (inactive) | > 100 µM (inactive) | > 100 µM (inactive) | > 100 µM (inactive) | 25.9 µM (inactive) | > 100 µM (inactive) | 41.5 µM (inactive) | > 100 µM (inactive) | – | > 100 µM (inactive) | 63.2 µM (inactive)
